Reference: publication PMC8760490, “Discovery of novel furanylbenzamide inhibitors that target oncogenic tyrosine phosphatase SHP2 in leukemia cells” (The Journal of Biological Chemistry, 2021)
Entries after “also recorded” stand apart in the source; their conditions may differ.

Biological target: T1, SHP2cat (Homo sapiens, UniProt Q06124)
T1 construct: the SHP2 catalytic domain (SHP2cat; residues 248–527); made in house
T1 sequence (Q06124 248-527): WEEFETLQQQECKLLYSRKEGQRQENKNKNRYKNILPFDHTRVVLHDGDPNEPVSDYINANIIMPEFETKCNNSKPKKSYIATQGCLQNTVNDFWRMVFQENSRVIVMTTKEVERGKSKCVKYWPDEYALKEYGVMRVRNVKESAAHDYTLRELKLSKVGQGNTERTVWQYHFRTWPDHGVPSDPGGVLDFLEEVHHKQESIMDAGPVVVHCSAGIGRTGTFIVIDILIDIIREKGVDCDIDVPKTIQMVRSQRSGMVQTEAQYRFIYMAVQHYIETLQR
Test: Jump-dilution inhibition assay
Format: biochemical
Conditions: 10× preincubation 10 min, 10× jump dilution
Protocol: PTPs contain a highly nucleophilic cysteine that is essential for catalytic activity but is susceptible to oxidation and covalent modifications, which abrogate its nucleophilic function and phosphatase activity ([26]). Because the methylenebenzothiophenone moiety of our inhibitors could potentially act as a Michael acceptor and thus covalently bind to the catalytic cysteine, we tested whether the observed inhibition of SHP2 was dependent on the preincubation time of inhibitor and enzyme. An irreversible covalent inhibitor may show time-dependent inhibition, with increased potency at longer incubation times. […] To test for time-dependent inhibition, SBI-2130 at ten different concentrations was preincubated with SHP2-E76K for 1, 5, 10, 20, or 60 min, before the DiFMUP substrate was added to the reaction mixture and initial rates were recorded (Fig. 3C). […]
SBI-2130 was tested for reversibility of inhibition in a jump-dilution experiment using SHP2cat. […] The enzyme reaction was started by the addition of 5 μl of DiFMUP working solution (100 μM in 50 mM Bis–Tris, pH 6.0, 50 mM NaCl, 0.5 mM EDTA, and 0.01% Tween-20), and fluorescence intensity was measured in kinetic mode (every minute for 10 min) using a Tecan Spark Multimode Microplate Reader as described previously. […] The initial rates were determined from the linear progression curves of the SHP2cat reaction. […]

Nc1ccc(NC(=O)c2cc(-c3ccc(/C=C4\Sc5ccccc5C4=O)o3)ccc2O)cc1 [SBI-2130, (Z)-N-(4-Aminophenyl)-2-hydroxy-5-(5-((3-oxobenzo[b]thiophen-2(3H)-ylidene)methyl)furan-2-yl)benzamide]
reversibility: IC50 curves jump dilution vs regular dose–response: reversible inhibitor; also recorded: practically identical
